The test system of the series is CCRIS mutagenicity, Ames/micronucleus/aberration tests. As to the kind of experiment: CCRIS mutagenicity studies.
[1] abbreviates: Test System: AMES SALMONELLA TYPHIMURIUM, Strain/Indicator: TA98, Metabolic Activation: NONE, Method: STANDARD PLATE.
The mark [2] stands for this setting: Test System: AMES SALMONELLA TYPHIMURIUM, Strain/Indicator: TA100, Metabolic Activation: RAT, LIVER, S-9, AROCLOR 1254, Method: STANDARD PLATE.
[3] abbreviates: Test System: AMES SALMONELLA TYPHIMURIUM, Strain/Indicator: TA100, Metabolic Activation: NONE, Method: STANDARD PLATE.

Molecules are shown by their SMILES. Calls of active or inactive are those of the source. The rule behind the calls is not given here.

Results on seven compounds are retold here after PubChem BioAssay AID1259407 (Chemical Carcinogenesis Research Information System (CCRIS), 2018).

As to `O=c1c(-c2ccc(O)cc2)coc2cc(O)cc(O)c12`, the mutagenic call reads like this: (End Point: IN VITRO CHROMOSOMAL ABERRATIONS, Test System: HUMAN PERIPHERAL LYMPHOCYTES, Metabolic Activation: NONE) “active; positive (structural changes)”; (End Point: IN VITRO MICRONUCLEUS, Test System: CHINESE HAMSTER V79 CELLS, Metabolic Activation: NONE) “active; positive”; (End Point: IN VITRO MICRONUCLEUS, Test System: MOUSE LYMPHOMA L5178Y CELLS, Metabolic Activation: NONE) “active; positive”; (End Point: IN VIVO CHROMOSOMAL ABERRATIONS, Test System: MAMMARY GLAND CELLS, USING DUAL PROBE FISH, Species: RAT, Strain/Sex: SPRAGUE-DAWLEY/FEMALE, Route: DIET) “inactive; negative”; (End Point: IN VIVO MICRONUCLEUS, Test System: MAMMARY GLAND CELLS, Species: RAT, Strain/Sex: SPRAGUE-DAWLEY/FEMALE, Route: DIET) “inactive; negative”; (End Point: MORPHOLOGICAL TRANSFORMATION, Test System: SYRIAN HAMSTER EMBRYO CELLS (SHE), Metabolic Activation: NONE) “inactive; negative”. Further, the mutagenic call by setting is: (Test System: CHINESE HAMSTER V-79, Strain/Indicator: V-79 (HPRT)/6-THIOGUANINE, Metabolic Activation: NONE) “active; positive”; (Test System: MOUSE LYMPHOMA, Strain/Indicator: L5178Y TK+/-, Metabolic Activation: NONE) “active; positive (above 90 umol/l)”; (Test System: MOUSE LYMPHOMA, Strain/Indicator: L5178Y TK+/-, Metabolic Activation: S-9) “active; positive”; (Test System: SYRIAN HAMSTER EMBRYO CELLS, Strain/Indicator: HPRT/6-THIOGUANINE, Metabolic Activation: NONE, Method: PLATE) “active; positive”.

For the compound `O=C1C=Cc2c(ccc3c2ccc2ccccc23)C1=O`, the mutagenic call was “inactive; negative” under setting [1] and “inactive; negative” under setting [2].

For `C[N+](C)=c1ccc2nc3ccc(N)cc3sc-2c1`, the mutagenic call by setting is: (Test System: Ames Salmonella typhimurium, Strain/Indicator: TA98, Metabolic Activation: Rat, Liver, S-9, Aroclor 1254 (10%), Method: Preincubation) “active; positive”; (Test System: Ames Salmonella typhimurium, Strain/Indicator: TA98, Strain/Sex: TA98, Metabolic Activation: None, Method: Preincubation) “active; positive”; (Test System: Ames Salmonella typhimurium, Strain/Indicator: TA100, Metabolic Activation: None, Method: Preincubation) “active; positive”; (Test System: Ames Salmonella typhimurium, Strain/Indicator: TA100, Metabolic Activation: Rat, Liver, S-9, Aroclor 1254 (10%), Method: Preincubation) “active; positive”; (Test System: E. coli, Strain/Indicator: WPM uvrA/pKM101, Metabolic Activation: None, Method: Preincubation) “active; positive”; (Test System: E. coli, Strain/Indicator: WPM uvrA/pKM101, Metabolic Activation: Rat, Liver, S-9, Aroclor 1254 (10%), Method: Preincubation) “active; positive”.

In the case of `CCNc1nc(N)nc(Cl)n1`, the mutagenic call runs as follows: (Test System: AMES SALMONELLA TYPHIMURIUM, Strain/Indicator: TA97, Metabolic Activation: NONE, Method: STANDARD PLATE) “inactive; negative”; under setting [1], “inactive; negative”; under setting [3], “inactive; negative”.

Take `CN(C)c1ccc(CCO)cc1`: the mutagenic call was “active; positive” (Test System: AMES SALMONELLA TYPHIMURIUM, Strain/Indicator: TA98, Metabolic Activation: HAMSTER, LIVER, S-9, AROCLOR 1254 (5, 10, 20%), Method: STANDARD PLATE); “active; positive” (Test System: AMES SALMONELLA TYPHIMURIUM, Strain/Indicator: TA98, Metabolic Activation: RAT, LIVER, S-9, AROCLOR 1254 (20%), Method: STANDARD PLATE); “active; positive” (Test System: AMES SALMONELLA TYPHIMURIUM, Strain/Indicator: TA98, Metabolic Activation: RAT, LIVER, S-9, AROCLOR 1254, HAMSTER, LIVER, S-9, AROCLOR 1254, Method: STANDARD PLATE); “active; positive” (Test System: AMES SALMONELLA TYPHIMURIUM, Strain/Indicator: TA1538, Metabolic Activation: HAMSTER, LIVER, S-9, AROCLOR 1254 (2.5-20%), Method: STANDARD PLATE); “active; positive” (Test System: AMES SALMONELLA TYPHIMURIUM, Strain/Indicator: TA1538, Metabolic Activation: RAT, LIVER, S-9, AROCLOR 1254 (5, 10, 20%), Method: STANDARD PLATE); “active; positive” (Test System: AMES SALMONELLA TYPHIMURIUM, Strain/Indicator: TA1538, Metabolic Activation: RAT, LIVER, S-9, AROCLOR 1254, HAMSTER, LIVER, S-9, AROCLOR 1254, Method: STANDARD PLATE). Moreover, the mutagenic call (Test System: MOUSE LYMPHOMA, Strain/Indicator: L5178Y (TK+/TK-), Metabolic Activation: RAT, LIVER, S-9, AROCLOR 1254, Method: SUSPENSION/PLATE) was “active; positive. reevaluation of results: inconclusive” and the mutagenic call (Test System: Mouse lymphoma, Strain/Indicator: L5178Y (tk+/tk-), Metabolic Activation: None, Method: Suspension/plate) was “inactive; negative”.

In the case of `c1ccc2c(c1)-c1cccc3c1c-2cc1ccccc13`, the mutagenic call was “active; positive” (Test System: AMES SALMONELLA TYPHIMURIUM, Strain/Indicator: TA98, Metabolic Activation: HAMSTER, LIVER, S-9, AROCLOR 1254 (10%), Method: PREINCUBATION); “active; positive” (Test System: AMES SALMONELLA TYPHIMURIUM, Strain/Indicator: TA98, Metabolic Activation: MOUSE, LIVER, S-9, AROCLOR 1254, Method: STANDARD PLATE); “inactive; negative” (Test System: AMES SALMONELLA TYPHIMURIUM, Strain/Indicator: TA98, Metabolic Activation: NONE, Method: PREINCUBATION); “inactive; negative” (Test System: AMES SALMONELLA TYPHIMURIUM, Strain/Indicator: TA98, Metabolic Activation: RAT, LIVER, S-9, AROCLOR 1254 (10%), Method: PREINCUBATION); “active; positive” (Test System: AMES SALMONELLA TYPHIMURIUM, Strain/Indicator: TA100, Metabolic Activation: HAMSTER, LIVER, S-9, AROCLOR 1254 (10%), Method: PREINCUBATION); “inactive; negative” (Test System: AMES SALMONELLA TYPHIMURIUM, Strain/Indicator: TA100, Metabolic Activation: NONE, Method: PREINCUBATION). The mutagenic call is, setting by setting: (Test System: AMES SALMONELLA TYPHIMURIUM, Strain/Indicator: TA100, Metabolic Activation: RAT, LIVER, S-9, AROCLOR 1254) “active; positive”; (Test System: AMES SALMONELLA TYPHIMURIUM, Strain/Indicator: TA100, Metabolic Activation: RAT, LIVER, S-9, AROCLOR 1254 (10%), Method: PREINCUBATION) “active; positive”; under setting [2], “active; positive”.

On to `CCC(=O)N(c1ccc(Cl)c(Cl)c1)[C@@H]1CCC[C@H]1N(C)C`, for which the mutagenic call by setting is: under setting [1], “inactive; negative”; (Test System: AMES SALMONELLA TYPHIMURIUM, Strain/Indicator: TA98, Metabolic Activation: RAT, LIVER, S-9, AROCLOR 1254, Method: STANDARD PLATE) “inactive; negative”; under setting [3], “inactive; negative”; under setting [2], “inactive; negative”; (Test System: AMES SALMONELLA TYPHIMURIUM, Strain/Indicator: TA1535, Metabolic Activation: NONE, Method: STANDARD PLATE) “inactive; negative”; (Test System: AMES SALMONELLA TYPHIMURIUM, Strain/Indicator: TA1535, Metabolic Activation: RAT, LIVER, S-9, AROCLOR 1254, Method: STANDARD PLATE) “inactive; negative”. Besides, the mutagenic call is, setting by setting: (Test System: AMES SALMONELLA TYPHIMURIUM, Strain/Indicator: TA1537, Metabolic Activation: NONE, Method: STANDARD PLATE) “inactive; negative”; (Test System: AMES SALMONELLA TYPHIMURIUM, Strain/Indicator: TA1537, Metabolic Activation: RAT, LIVER, S-9, AROCLOR 1254, Method: STANDARD PLATE) “inactive; negative”; (Test System: AMES SALMONELLA TYPHIMURIUM, Strain/Indicator: TA1538, Metabolic Activation: NONE, Method: STANDARD PLATE) “inactive; negative”; (Test System: AMES SALMONELLA TYPHIMURIUM, Strain/Indicator: TA1538, Metabolic Activation: RAT, LIVER, S-9, AROCLOR 1254, Method: STANDARD PLATE) “inactive; negative”; (Test System: CHINESE HAMSTER OVARY, Strain/Indicator: CHO-K1-BH4 (HGPRT), Metabolic Activation: NONE) “inactive; negative”; (Test System: CHINESE HAMSTER V-79, Strain/Indicator: V-79/6-THIOGUANINE, Metabolic Activation: NONE) “inactive; negative”. For the same compound, the mutagenic call was “inactive; negative” (Test System: CHINESE HAMSTER V-79, Strain/Indicator: V-79/6-THIOGUANINE, Metabolic Activation: RAT, LIVER, S-9, AROCLOR 1254) and “inactive; negative” (Test System: UDS RODENT HEPATOCYTES, Strain/Indicator: THY INCORP, Metabolic Activation: NONE).
